Read-outs that look alike come from different tables or passages of the source.
Columns and labels:
Assay type in all cases: in vivo
[1] = system: Euschistus heros (Neotropical Brown Stink Bug); experiment: Euschistus heros feeding/contact activity on soybean leaves; details: 120 h
Description: Euschistus heros (Neotropical Brown Stink Bug): Feeding/contact activity
Soybean leaves on agar in 24-well microtiter plates were sprayed with aqueous test solutions prepared from 10′000 ppm DMSO stock solutions. After drying the leaves were infested with N2 nymphs. The samples were assessed for mortality 5 days after infestation.

[2] = system: Myzus persicae (Green peach aphid); experiment: Myzus persicae feeding/contact activity on sunflower leaf discs; details: foliar, 144 h
Description: Myzus persicae (Green peach aphid): Feeding/Contact activity
Sunflower leaf discs were placed onto agar in a 24-well microtiter plate and sprayed with aqueous test solutions prepared from 10′000 ppm DMSO stock solutions. After drying, the leaf discs were infested with an aphid population of mixed ages. The samples were assessed for mortality 6 days after infestation.

[3] = system: Plutella xylostella (Diamond back moth); experiment: Plutella xylostella feeding/contact activity on artificial diet; details: 120 h
Description: Plutella xylostella (Diamond back moth): Feeding/contact activity
24-well microtiter plates with artificial diet were treated with aqueous test solutions prepared from 10′000 ppm DMSO stock solutions by pipetting. After drying, the plates were infested with L2 larvae (10 to 15 per well). The samples were assessed for mortality 5 days after infestation.

[4] = system: Spodoptera littoralis (Egyptian cotton leaf worm); experiment: Spodoptera littoralis feeding/contact activity on cotton leaf discs; details: foliar, 72 h
Description: Spodoptera littoralis (Egyptian cotton leaf worm): Feeding/contact activity
Cotton leaf discs were placed onto agar in 24-well microtiter plates and sprayed with aqueous test solutions prepared from 10′000 ppm DMSO stock solutions. After drying the leaf discs were infested with five L1 larvae. The samples were assessed for mortality 3 days after infestation. […] 2, 3, 4, 5, 6, 7, 8, 9, 10, 11, 12, 13, 14, 15, 16, 17, 18, 19, 20, 21, 22, 23, 24, 25, 26, 27, 28 and 29.

[5] = system: Tetranychus urticae (Two-spotted spider mite); experiment: Tetranychus urticae feeding/contact activity on bean leaf discs; details: foliar, 192 h, application rate 200 ppm, mite population of mixed ages, assessed 8 days after infestation, read-out: mortality on mixed population (mobile stages)
Description: Tetranychus urticae (Two-spotted spider mite): Feeding/contact activity
Bean leaf discs on agar in 24-well microtiter plates were sprayed with aqueous test solutions prepared from 10′000 ppm DMSO stock solutions. After drying the leaf discs were infested with a mite population of mixed ages. The samples were assessed for mortality on mixed population (mobile stages) 8 days after infestation.

[6] = application rate 200 ppm, N2 nymphs, assessed 5 days after infestation, read-out: mortality
[7] = application rate 200 ppm, aphid population of mixed ages, assessed 6 days after infestation, read-out: mortality
[8] = application rate 200 ppm, L2 larvae, assessed 5 days after infestation, read-out: mortality
[9] = application rate 200 ppm, L1 larvae, assessed 3 days after infestation, read-out: mortality

Measured: mortality at 200 ppm

CC(C)OCN(C(=O)c1cc(-c2cnn(-c3c(OC(F)F)c(C(F)(C(F)(F)F)C(F)(F)F)nn3C)c2)ccc1Cl)C1(C#N)CC1 [Example 2, 2-chloro-N-(1-cyanocyclopropyl)-5-[1-[4-(difluoromethoxy)-2-methyl-5-[1,2,2,2-tetrafluoro-1-(trifluoromethyl)ethyl]pyrazol-3-yl]pyrazol-4-yl]-N-(isopropoxymethyl)benzamide]
≥ 80%: [1]; [6] | [2]; [7] | [3]; [8] | [4]; [9] | [5]

CC(C)N(C(=O)c1cc(-c2cnn(-c3c(OC(F)F)c(C(F)(C(F)(F)F)C(F)(F)F)nn3C)c2)ccc1Cl)C1(C#N)CC1 [Example 5, 2-chloro-N-(1-cyanocyclopropyl)-5-[1-[4-(difluoromethoxy)-2-methyl-5-[1,2,2,2-tetrafluoro-1-(trifluoromethyl)ethyl]pyrazol-3-yl]pyrazol-4-yl]-N-isopropyl-benzamide]
≥ 80%: [1]; [6] | [4]; [9]

COCCCN(C(=O)c1cc(-c2cnn(-c3c(OC(F)F)c(C(F)(C(F)(F)F)C(F)(F)F)nn3C)c2)ccc1Cl)C1(C#N)CC1 [Example 6, 2-chloro-N-(1-cyanocyclopropyl)-5-[1-[4-(difluoromethoxy)-2-methyl-5-[1,2,2,2-tetrafluoro-1-(trifluoromethyl)ethyl]pyrazol-3-yl]pyrazol-4-yl]-N-(3-methoxypropyl)benzamide]
≥ 80%: [1]; [6] | [2]; [7] | [3]; [8] | [4]; [9] | [5]

CCOCCN(C(=O)c1cc(-c2cnn(-c3c(OC(F)F)c(C(F)(C(F)(F)F)C(F)(F)F)nn3C)c2)ccc1Cl)C1(C#N)CC1 [Example 13, 2-chloro-N-(1-cyanocyclopropyl)-5-[1-[4-(difluoromethoxy)-2-methyl-5-[1,2,2,2-tetrafluoro-1-(trifluoromethyl)ethyl]pyrazol-3-yl]pyrazol-4-yl]-N-(2-ethoxyethyl)benzamide]
≥ 80%: [2]; [7] | [3]; [8] | [4]; [9] | [5]

CCCN(C(=O)c1cc(-c2cnn(-c3c(OC(F)F)c(C(F)(C(F)(F)F)C(F)(F)F)nn3C)c2)ccc1Cl)C1(C#N)CC1 [Example 14, 2-chloro-N-(1-cyanocyclopropyl)-5-[1 - [4-(difluoromethoxy)-2-methyl-5-[1,2,2,2-tetrafluoro-1-(trifluoromethyl)ethyl]pyrazol-3-yl]pyrazol-4-yl]-N-propyl-benzamide]
≥ 80%: [1]; [6] | [4]; [9]

CC(C)OC(=O)N(C(=O)c1cc(-c2cnn(-c3c(OC(F)F)c(C(F)(C(F)(F)F)C(F)(F)F)nn3C)c2)ccc1Cl)C1(C#N)CC1 [Example 20, isopropyl N-[2-chloro-5-[1-[4-(difluoromethoxy)-2-methyl-5-[1,2,2,2-tetrafluoro-1-(trifluoromethyl)ethyl]pyrazol-3-yl]pyrazol-4-yl]benzoyl]-N-(1-cyanocyclopropyl)carbamate]
≥ 80%: [1] | [2] | [3] | [4]

CC(C)CN(C(=O)c1cc(-c2cnn(-c3c(OC(F)F)c(C(F)(C(F)(F)F)C(F)(F)F)nn3C)c2)ccc1Cl)C1(C#N)CC1 [Example 21, 2-chloro-N-(1-cyanocyclopropyl)-5-[1-[4-(difluoromethoxy)-2-methyl-5-[1,2,2,2-tetrafluoro-1-(trifluoromethyl)ethyl]pyrazol-3-yl]pyrazol-4-yl]-N-isobutyl-benzamide]
≥ 80%: [1]; [6] | [4]; [9]

From patent US11365187B2, “Pesticidally active pyrazole derivatives” (SYNGENTA PARTICIPATIONS AG, priority 2017, dated 2022)
